From ChEMBL document CHEMBL5729639, “FGFR4 inhibitor and preparation method and use thereof” (2023)

Biological target: Fibroblast growth factor receptor 1 (Homo sapiens, UniProt P11362)
Assay: Enzymologic Experiment of FGFR1: In this experiment, the inhibitory effect of the compounds on FGFR1 kinase activity was tested by a fluorescence resonance energy transfer (TR-FRET) method, and the half maximal inhibitory concentration (IC50) of the compounds on the FGFR1 kinase activity was determined. 1) 1˜5 μL of FGFR1 enzymatic solution was added to a 384-well plate, and the final concentration of the enzyme was 0.1˜5 nM. 2) 1˜5 μL of diluted solution in gradient of the compound was added.3) 1˜5 μL of a substrate mixture containing substrate polypeptide with a final concentration of 5˜50 nM and ATP with a final concentration of 10˜200 μM was added. 4) The mixture was incubated for 0.5-3 hours at room temperature. 5) 10 μL of EDTA and a test solution comprising labeled antibody were added, and the plate was incubated for 1 hour at room temperature. 6) The fluorescence signal values of each plate were determined by a microplate reader at 665 nm. 7) The inhibition rates were calculated according to the fluorescence signal values.

Chain of Fibroblast growth factor receptor 1 (P11362 whole entry): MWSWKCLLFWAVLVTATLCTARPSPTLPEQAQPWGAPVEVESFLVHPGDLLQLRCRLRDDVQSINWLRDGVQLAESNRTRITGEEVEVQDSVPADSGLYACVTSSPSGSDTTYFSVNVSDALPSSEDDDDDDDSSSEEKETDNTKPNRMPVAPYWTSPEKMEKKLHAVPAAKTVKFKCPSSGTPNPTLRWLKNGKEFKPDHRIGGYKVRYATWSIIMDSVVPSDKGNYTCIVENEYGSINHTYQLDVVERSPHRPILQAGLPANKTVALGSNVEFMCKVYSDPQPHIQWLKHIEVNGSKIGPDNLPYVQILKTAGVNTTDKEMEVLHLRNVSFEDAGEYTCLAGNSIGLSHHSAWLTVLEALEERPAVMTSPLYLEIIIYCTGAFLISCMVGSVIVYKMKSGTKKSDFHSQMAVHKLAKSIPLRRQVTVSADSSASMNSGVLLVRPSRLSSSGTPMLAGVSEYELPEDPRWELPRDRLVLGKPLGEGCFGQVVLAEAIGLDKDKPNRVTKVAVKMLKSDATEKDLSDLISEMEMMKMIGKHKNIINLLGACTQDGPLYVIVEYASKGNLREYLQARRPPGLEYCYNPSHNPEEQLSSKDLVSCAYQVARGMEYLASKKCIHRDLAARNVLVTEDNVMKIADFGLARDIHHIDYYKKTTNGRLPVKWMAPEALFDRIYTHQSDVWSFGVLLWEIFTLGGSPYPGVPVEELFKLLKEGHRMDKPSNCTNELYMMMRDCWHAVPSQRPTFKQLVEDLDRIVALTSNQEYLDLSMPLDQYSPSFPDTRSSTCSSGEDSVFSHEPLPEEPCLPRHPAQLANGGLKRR

Row | IC50 | SMILES
1 | > 10 µM | COC[C@@H](C)Nc1cc(NC(=O)N2CCCc3cc(CN4CC[C@@H](OC)C4=O)c(C=O)nc32)ncc1C#N
2 | > 10 µM | COCCNc1cc(NC(=O)N2CCCc3cc(CN(C=O)C[C@H]4CCCO4)c(C=O)nc32)ncc1C#N
3 | > 10 µM | COCCNc1cc(NC(=O)N2CCCc3cc(CN(C=O)[C@H]4CCOC4)c(C=O)nc32)ncc1C#N
4 | > 10 µM | COCCNc1cc(NC(=O)N2CCCc3cc(CN(C=O)C[C@@H]4CCCO4)c(C=O)nc32)ncc1C#N
